Assay results: the NIST ThermoML archive (doi:10.1016/j.jct.2015.11.021)
Numbers after ± are expanded uncertainties.

Details: Liquid, Closed cell (Static) method

vapor or sublimation pressure (303.15 K) [kPa] | vapor or sublimation pressure (323.15 K) [kPa] | vapor or sublimation pressure (343.15 K) [kPa] | vapor or sublimation pressure (363.15 K) [kPa] | vapor or sublimation pressure (373.15 K) [kPa] | Structure (SMILES)
177.8 ± 1.1 | 344.7 ± 1.2 | 610.2 ± 1.5 | 1006.7 ± 2 | 1266.2 ± 2.4 | FC(F)CC(F)(F)F [1,1,1,3,3-pentafluoropropane]
283.7 ± 1.1 | 496.2 ± 1.2 | 809.8 ± 1.5 | 1249.8 ± 2.1 | 1526.8 ± 2.4 | CCCC [butane]
